Results from ChEMBL document CHEMBL3507680, “University of Dundee, Gates Library screen for HepG2 cell viability”.

Test: Human HepG2 cell viability assay in 384 well format
Assay type: toxicity, cell-based
Set-up: dose 125 nL, time 70.5 hour; concentration not given beside the values
Conditions: HepG2 cells, read-out: Inhibition

Compound | cytotoxicity at 70.5 h [%]
Cn1nnc2c1C(COCC1CC1)CN(C(=O)Cc1cccs1)C2 (stereo unspecified) | -19.3
CN(C)Cc1nc(C2(NC(=O)Nc3cccc(F)c3)CCCC2)no1 | -2.26
Cc1cc(C)n(CC2CCCN2C(=O)c2ccc3nncn3c2)n1 (stereo unspecified) | -4.03
Cc1nn(C)c(C)c1C1CCCN1C(=O)c1ccc(C(N)=O)cn1 (stereo unspecified) | 4.05
CC(=O)Nc1cccc(CNC(=O)N(C)Cc2ccccc2)c1 | -8.01
O=C(NCCOc1ccc2c(c1)OCO2)N1CCC1 | -12.5
CCc1noc(CCCC(=O)N2CCCC(c3ccn[nH]3)C2)n1 (stereo unspecified) | -5.32
CCn1ncc(C(=O)N2CCCN(CCCc3ccccc3)CC2)c1C | -2.97
CC(C)CCN1CCc2cc(C(=O)N(C)C)c(NCC3CC3)nc2CC1 | 5.09
CCc1c(C)n(CCC#N)c2nc3ccccc3n2c1=O | -9.18
CO[C@H]1CCN(c2nnc(C)s2)C[C@@H]1Cc1ccccc1 | -4.37
Cc1n[nH]c(C)c1C1CCCN1C(=O)NCC(=O)NC(C)(C)C (stereo unspecified) | -2.7
CNc1ccnc(N2C[C@@H](C)[C@](O)(C3CCC3)C2)n1 | 26
CN(C)c1cccc(CNC(=O)Nc2ccc3[nH]nnc3c2)n1 | -2.68
CN1CCN(c2ccc(F)cc2NC(=O)NCCn2ccnc2)CC1 | -0.0867
COc1cccc2c1OCCCN(Cc1ncccc1C(=O)O)C2 | -3.58
CC(CN1CCOCC1)NC(=O)c1cc(Cl)c2c(c1)OCCO2 (stereo unspecified) | 0.172
CC(C)NC(=O)CC(C)NCc1cc(Cl)ccc1F (stereo unspecified) | -3.06
O=C(c1ccccc1-c1nnn[nH]1)N1CCOC(C(F)(F)F)C1 (stereo unspecified) | -9.42
CN1CCN(C(=O)[C@@H]2CN(C)C[C@]23COc2ccc(F)cc2C3=O)CC1 | 28.4
CC(C)CC(=O)N1CC(=O)c2sc(NCCc3ccccc3)nc2C1 | 0.452
CN1CCN(Cc2nc3ccccc3[nH]2)[C@H]2CS(=O)(=O)C[C@H]21 | -10.2
Cc1cc(CN(C)C(=O)NC2CCS(=O)(=O)C2)no1 (stereo unspecified) | -15.8
CN(C)C(=O)NCc1ncn2c1CN(Cc1ccco1)CCC2 | -6.46

Compound | cytotoxicity at 70.5 h [%]
Cc1nc(CN2CC3(CCN(c4cnccn4)C3)CC2=O)cs1 (stereo unspecified) | -10.3
CN(CCOc1cccc(F)c1)CC(=O)Nc1ccncc1 | -10.9
COCc1ccccc1CNCc1c(C(C)C)nn(C)c1N(C)C | -0.306
CC(C)c1ocnc1C(=O)N1CCC2(CC1)OCCO2 | -8.01
COc1ccc(CC2CN(C(=O)c3ocnc3C)CCO2)cc1 (stereo unspecified) | 14.4
CC(C)c1nnc2n1CCN(Cc1nc3c(F)cccc3[nH]1)C2 | -5.06
Cc1noc(C)c1CC(=O)N1CCCC(Cc2ccccn2)C1 (stereo unspecified) | -7.69
CCC(C)NC(=O)c1nnn(-c2cccc3c2CCN(C)C3)c1C (stereo unspecified) | 2.37
CCCS(=O)(=O)N1CCC(c2ccc(OC)cc2)CC1 | -5.25
CN1CCN(S(=O)(=O)c2ccc3c(c2)CN(C(=O)C(C)(C)C)CC3)CC1 | -2.56
CCn1c(C2CCNCC2)nn(CCn2cncn2)c1=O | -6.69
COc1ccc(CNC(=O)NCc2nc(C)c(C)s2)cn1 | -5.21
COc1ccc(CCCC(=O)N2CCCC(n3cccn3)C2)cc1 (stereo unspecified) | 14.5
O=C(CC1CCCC1)N1C[C@H](OCc2ccncc2)[C@H]2OCCC[C@H]21 | -27.1
CCCNS(=O)(=O)c1cc2c3c(c1)c(C)cc(=O)n3CCC2 | -0.859
Cc1cccc(-n2ncc(C(=O)N3CCn4c(C)nnc4C3)c2C)c1 | -10.4
Cc1ncsc1CCC(=O)N(C)Cc1nc2ccccc2n1C | -1.06
COCCN1CCC(CNC(=O)c2cc(Cl)c[nH]2)CC1 | -11.1
CC(C(=O)NCCN1CCN(C)CC1)n1cncn1 (stereo unspecified) | -7.19
COC(=O)c1ccc(NS(=O)(=O)c2cnc(NC(C)=O)s2)cc1 | -12
O=C(c1cccs1)N1CC(Oc2ccccc2Cl)C1 | -0.814
Cc1noc(C)c1-c1cccc(C2CCN(S(=O)(=O)N(C)C)CC2)n1 | 2.89
Cc1nccc(C2CCCCN2Cc2ccccc2)n1 (stereo unspecified) | -5
CCn1nc(C)c(NC(=O)CN(C)C(C)c2nccs2)c1C (stereo unspecified) | -6.95

Compound | cytotoxicity at 70.5 h [%]
O=S(=O)(NCCNc1cc(-n2cccc2)ncn1)c1cccs1 | -2.52
Cc1cccc(CN2CCC(NS(C)(=O)=O)CC2)n1 | -8.65
Cc1ncsc1C(=O)N(Cc1cccnc1)C1CC1 | 3.01
CCOC1Sc2nnc(C)n2N=C1c1ccc(Br)cc1 (stereo unspecified) | -8.58
O=C(NCCc1coc(-c2ccccc2)n1)NC1CC1 | 20.2
Cc1cc(C)n(CCN(C)Cc2c[nH]nc2-c2ccc3c(c2)OCO3)n1 | -5.98
COc1ccc(C2Nc3ccccc3C3=NCCCN32)cc1OC (stereo unspecified) | 7.54
O=C(NC1CC1)N1Cc2[nH]nc(COCC3CC3)c2C1 | -7.86
CN(C)S(=O)(=O)N1CC[C@]2(C[C@@H](Oc3cccnc3)CO2)C1 | -5.96
CCC[C@H]1CN(C(=O)Cn2ccccc2=O)C[C@@H]1NS(C)(=O)=O | -1.15
CC(O)CN1CCC(CN(C)Cc2cc(F)cc3cccnc23)CC1 (stereo unspecified) | -2.25
COC(=O)c1sccc1S(=O)(=O)N1CCC(Oc2ncccc2Cl)CC1 | 2.59
COCCN(Cc1ccoc1)C(=O)c1ccccc1Cl | 6.96
CCN(CC)CC(=O)NCc1cccnc1-n1cnc2ccccc21 | -3.36
COCCN(Cc1ccoc1)C(=O)c1c(F)cccc1F | -3.64
CCN(Cc1ccc2c(c1)OCO2)C(=O)NC(C)Cn1ccnc1 (stereo unspecified) | 1.66
CC(C)C(C(=O)NC1CCOCC1)n1cnc2cc(F)c(F)cc21 (stereo unspecified) | 1.78
CCc1cc(NCCCOC2CCN(C)CC2)ncn1 | -15.3
O=C1COC2(CCN(Cc3cccs3)CC2)CN1c1cncnc1 | 0.999
NC(=O)CN1CCc2c(Br)ccc(F)c2C1 | 3.38
O=C(c1ccc(S(=O)(=O)NCc2ccon2)cc1)N1CCNCC1 | -6.36
COc1cc(C)sc1C(=O)NCCC(=O)N(C)c1ccccc1 | -2.86
CN(C)c1cc(CC(NC(=O)C2CC2)c2ccccc2)nc(C2CC2)n1 (stereo unspecified) | 16.9
CC(NC(=O)Cn1cccn1)c1cccnc1 (stereo unspecified) | -4.88

Compound | cytotoxicity at 70.5 h [%]
Cc1cc(CSCc2csc(CS(C)(=O)=O)n2)no1 | 2
Cc1nc2scc(C)n2c1CNc1ccc(C(=O)O)cc1 | 19.2
CCn1cc(NC(=O)C2CCN(Cc3ccccc3)CC2)cn1 | 2.21
CCCN(CCc1ccccn1)C(=O)Cn1cc(C)cn1 | -4.61
COC1CN(C(=O)C2CC2)CCC(=O)N(C)c2ccccc21 (stereo unspecified) | 2.56
Cc1ccc(N2CCCN(C(=O)CC3CCCO3)CC2)nn1 (stereo unspecified) | -18.7
CCc1ncc(C(=O)NC(C)(C)C(=O)OC)s1 | 12.2
O=C1N(c2cncnc2)CCC12CCCN(Cc1cccnc1)C2 (stereo unspecified) | -3.72
CNc1cccc(CC2COCCN(C(=O)c3cncs3)C2)n1 (stereo unspecified) | 1.43
Cn1cc(NC(=O)Nc2cccc3cccnc23)ccc1=O | 53.3
Cc1cc(C(=O)N2CCC3(C2)CN(c2ccsc2)C(=O)CN3C)[nH]n1 (stereo unspecified) | -7.61
O=C1O[C@@H]2CN(Cc3ccccc3F)C[C@@H]2N1CCCN1CCOCC1 | 8.16
N#CCCN(C(=O)CN1CCCC1Cc1ccccc1)c1ccccc1 (stereo unspecified) | 0.569
CCOCc1ccc(NCc2cnc(N3CCN(C)CC3)nc2)cc1 | -3.75
CCC(=O)NCC(=O)Nc1ncc(I)cc1C | 0.64
OCCN1CCC(CNCc2ccc(N3CCCCC3)cc2)CC1 | 1.15
COCCN(Cc1cccc(O)c1)CC1CC1 | 29.9
OCC1CCCN1c1cc(NCc2ccsc2)ncn1 (stereo unspecified) | 1.84
Cc1cn2c(n1)CCC(NC(=O)c1[nH]ncc1Br)C2 (stereo unspecified) | -9.45
O=C(Nc1cccc2ccccc12)N1CCC(N2CCSCC2)CC1 | -0.0142
CNC(=O)C1CN(Cc2ccc(C#N)cc2F)c2ccccc2O1 (stereo unspecified) | 1
Cc1cccc(NC(=O)CN(C)C(=O)c2scnc2C)n1 | 0.715
Cc1cnn(CC2CCCN2CC(=O)Nc2cc(C)nn2C)c1 (stereo unspecified) | 9.7
CCCN(C)CCC(=O)N1CCCC1Cn1cccn1 (stereo unspecified) | 15.3

Compound | cytotoxicity at 70.5 h [%]
Cc1cnn(CC2CCCN2Cc2nccn2C)c1 (stereo unspecified) | 13.6
Cc1[nH]c(-c2ccccc2)nc1C(=O)N1CC[C@H](CO)[C@@H](O)C1 | 23.4
CC(C)c1nn(C)c(N(C)C)c1CNC1CCN(C2CC2)CC1 | -2.94
CN(Cc1ccc([S+](C)[O-])cc1)c1cncc(Br)c1 (stereo unspecified) | -23.7
Cc1noc(CN2CCN(Cc3cccs3)CC2)n1 | -25.4
Cc1nn(C)c(C)c1S(=O)(=O)NCC1(C(N)=O)CCOCC1 | -11.5
OCCN1CCN(Cc2cc(Cl)cc3cccnc23)CC1 | 4.47
Cc1cccnc1Nc1nccc(C2CN(CC(N)=O)C2)n1 | -3.23
Cc1nc(CN(C)C2CCN(CC(=O)N(C)CCC#N)C2)no1 (stereo unspecified) | 0.0577
COc1ccc(-c2nnc(CN3CCNC(=O)C3)o2)cc1 | -2.61
CCc1ncc(C(=O)N2CCN(C(=O)COc3ccccc3)CC2)cn1 | -3.1
COC(=O)N(C)CCCC(=O)Nc1[nH]nc(-c2ccncc2)c1C | -2.11
Cc1ccc(-c2ncc(CN3CCOC(c4ccco4)C3)s2)o1 (stereo unspecified) | -6.87
O=C(CCc1cscn1)N1CCCC(c2ccn[nH]2)C1 (stereo unspecified) | -8.08
CC(C)n1ncc2c1NC(=O)CC21C(=O)Nc2c(Cl)ccc(Cl)c21 (stereo unspecified) | -12.2
CCCC(=O)NC(Cc1ccc(C)cc1)c1ccccn1 (stereo unspecified) | 2.81
Cc1cc(CN2CC[C@H]3C[C@H](c4nccs4)O[C@@H]3C2)no1 | -15.6
CCn1c(CN2CCCC2)nnc1C1CCN(Cc2ccc(C)o2)CC1 | -5.38
Cc1ccc(C(=O)NCC(C)CN2CCCC2=O)c(=O)[nH]1 (stereo unspecified) | -113
Cc1ccccc1C1CCN(CCn2cc(-c3nccn3C)nn2)C1 (stereo unspecified) | 2.36
